Results published in patent publication US9051240B2, “Substituted 2-[2-(phenyl) ethylamino] alkaneamide derivatives and their use as sodium and/or calcium channel modulators” (Newron Pharmaceuticals S.P.A., priority 2007, dated 2015).
Read-outs that look alike come from different tables or passages of the source.

How the values were obtained:
[1] = target: Na+ currents in rat cortical neurons; test: Patch clamp evaluation of Na+ currents blockade in rat cortical neurons; type: cell-based; details: for Ki: calculated from Kr and Kdep, read-out: Ki (apparent affinity for the inactivated state)
Method: Cortical neurons were prepared from embryonic Wistar rats (E17-E19). A female rat at date 17-19 of pregnancy was anesthetized and sacrificed. The fetuses (n=4-5) were dissected and placed in ice-cold Hank's solution (Hank's solution (Life tech.14170-088)+glucose 30%+Pen-Strep 100× (Life Tech. 15140-122) 100U-100 μg/ml and Hepes-NaOH 5 mM). The uterus and placenta were removed, the fetuses were decapitated and the heads were placed in ice-cold Hank's solution. Cells were counted and diluted in Neurobasal medium to a concentration of 400000 cells per poly-D-lysine 5 μg/ml treated Petri dish. Cortical neurons were used from day 6th till day 11th after plating, and once a week Neurobasal medium was changed. Experiments on cortical neurons were carried out using standard whole cell patch clamp methods (Hamill et al., Pfugers Arch., 1981 August, 391(12), 85-100). Membrane currents were recorded and filtered at 5 kHz with an Axon Axopatch 200B amplifier and data digitized with an Axon Digidata 1322A (Axon Instruments, CA, USA). Protocol playing and data acquisition were controlled online with Axon pClamp8 software. Measuring and reference electrodes were AgCl-Ag electrodes. A Sutter Instrument P-87 Puller (CA, USA) was used for pulling patch clamp pipettes with a resistance of 2-3 MΩ from Harward borosilicate glass tubes. Cells were continuously superfused with extracellular solutions, using a solution changer Biologic RSC-200. To test the effect of compounds on sodium currents in cortical neurons, cells were clamped at -90 mV, then a two step protocol was used to determine the voltage dependence of the block. […] Tonic block of resting and depolarized currents at a given drug concentration, was calculated as the difference between the peak Na^+ current in the control external bath solution and peak currents with the test substance divided by control peak. Drug concentration-inhibition curves were obtained by plotting tonic blocks in the resting and depolarized condition, versus drug concentrations. Dose-response curves were fitted to the tonic block data, according to the logistic equation: […] Control bath solution contained (mM): […] Internal pipette solution consisted of (mM): […] Compounds were dissolved as stock solutions (20 mM) in DMSO. They were diluted to the final concentrations in the external solution.

[2] = tested on: SNL rats; test: Spinal nerve ligation model of neuropathic pain (thermal hyperalgesia); type: in vivo; details: Rattus norvegicus, po, orally administered
[3] = tested on: mice; test: Amphetamine and chlordiazepoxide-induced hyperlocomotion in mice; type: in vivo; details: 20.0 mg/Kg po
Method: In this model, mice are treated with a mixture of d-amphetamine plus an anxiolytic dose of the benzodiazepine, chlordiazepoxide (Rushton R, Steinberg H. Combined effects of chlordiazepoxide and d-amphetamine on activity of rats in an unfamiliar environment. Nature 1966; 211:1312-3; R. Arban, G. Maraia, K. Brackenborough, L. Winyard, A. Wilson, P. Gerrard, C. Large. Evaluation of the effects of lamotrigine, valproate and carbamazepine in a rodent model of mania Behavioural Brain Research, 158: 123-132). The model has been claimed to mimic some aspects of mania in bipolar disorder. Importantly, the hyperactivity induced by the mixture of d-amphetamine and chlordiazepoxide could be prevented by prior administration of the established mood stabilizer, lithium, as well as other mood stabilizers drugs (e.g. magnesium valproate and carbamazepine). […]
Amphetamine (AMP) (2.5 mg/kg) plus chlordiazepoxide hydrochloride (CDZ) (3 mg/kg/ip) were administered to male Albino Swiss mice (25-32 g) in a volume of 10 ml/kg. The locomotor activity was recorded using Opto-M3 System (Columbus Instruments) which is multi-channel activity monitor. […] The locomotor activity (ambulation and total activity count) was evaluated for 30 min. […]
Statistical analysis: the data were evaluated by an analysis of variance (ANOVA), followed, when appropriate, by individual comparison with the control using Dunnett's test.

[4] = preconditioning potential -110 mV, read-out: IC50 resting (Kr)
[5] = preconditioning potential ~-50 mV, read-out: IC50 depolarized

Compound | Ki [1] [µM] | IC50 [1, 4] [µM] | IC50 [1, 5] [µM] | ED50 [2] [mg/kg] | hyperactivity (ambulation over 30 min) induced by amphetamine alone ([3]; amphetamine 2.5 mg/kg i.p.) | hyperactivity (ambulation over 30 min) induced by the mixture of amphetamine and chlordiazepoxide ([3]; amphetamine 2.5 mg/kg i.p. + chlordiazepoxide 3.0 mg/Kg ip) | IC50 ([1]; resting condition, figure in parentheses after >100, read-out: IC50 resting (Kr), value in parentheses) [µM]
CCCCOc1cccc(CCNCC(=O)N(C)C)c1.Cl [2-[2-(3-Butoxyphenyl)-ethylamino]-N,N-dimethylacetamide hydrochloride] | 0.4 | 25 | 0.8 | 10.6 | reduced hyperactivity | reduced hyperactivity | –
C[C@H](NCc1ccc(OCc2ccccc2F)cc1)C(N)=O [ralfinamide, (S)-(+)-2-[4-(2-fluorobenzyloxy)-benzylamino]-propanamide, reference compound] | 4.7 | > 100 | 9 | – | – | – | 213
